Reference: patent US6235707A, “Anticoagulant peptidyl-arginine aldehyde derivatives” (Gyogyszerkutato Intezet Kft., priority 1996, dated 2001)

How the values were obtained:
citrate plasma = test: activated partial thromboplastin time (APTT) plasma clotting test; assay type: biochemical; details: Table 3; twofold prolongation compared to control; read-out: A: anticoagulant IC50, APTT
Method: Anticoagulant activity (i.e. inhibition of the proteolytic reactions in the process) is measured by anticoagulant tests, e.g. in the thrombin time (TT), activated partial thromboplastin time (APTT) and prothrombin time (PT) tests [E. J. W. Bovie et al., Mayo Clinic Laboratory Manual of Haemostasis; W. B. Saunders Co., Philadelphia (1971)]. Plasma, inhibited in spontaneous coagulation, e.g. citrate-plasma, is made to coagulate and the required coagulation time is measured. Upon the action of anticoagulants the coagulation time is prolonged proportionally to the inhibition of the reaction(s) in the process. The anticoagulant effect can be characterised by the substance concentration required to prolong the coagulation time twofold compared to the control (IC50). The effect of anticoagulants on individual coagulant proteases is measured by the amidolytic method [R. Lottenberg et al., Methods in Enzymol. 80, 341 (1981); G. Cleason, Blood Coagulation and Fibrinolysis 5, 411 (1994)]. The isolated active factor (e.g. thrombin, fXa) and its chromogen or fluorogen peptide-amide substrate are reacted in the presence or absence of the inhibitor, resp. The enzyme inhibiting action is characterised by the inhibitory constant (IC50) measured during amidolysis.
In the TT test coagulation is initiated by the thrombin added to the citrate plasma. In the system 22 pmol/ml of thrombin is functioning and its inhibition can be measured on the fibrinogen (one of the natural substrates of thrombin) in the presence of plasma components. In the APTT and PT tests the full coagulation process takes place. Depending on the activator fX is activated either by the extrinsic or the intrinsic pathway. The generated fXa activates prothrombin to thrombin which, in turn, triggers plasma coagulation. The coagulation time is prolonged if the enzymes or one of them is inhibited by the inhibitor. In the APTT and PT tests at most 40 pmol/ml Xa can be generated (this is the full amount of factor X present in both systems) while 150 pmol/ml (APTT) and 350 pmol/ml (PT) of thrombin are generated [B. Kaiser et al., Thromb. Res. 65, 157 (1992)].
The in vitro anticoagulant effects of the compounds of general formula (I) was measured by the prothrombin time (PT), activated partial thromboplastin time (APTT) and thrombin time (TT) tests [D. Bagdy et al., Thromb. Haemost. 67, 325 (1992)]. The fxa-inhibiting effect of the compounds was also determined using the Bz-Ile-Glu-Gly-Arg-pNA chromogen substrate (see method M6).

[1] = molecular target: tissue plasminogen activator (tPA) (Homo sapiens, UniProt P00750); test: fibrin-plate method, plasmin formation induced by tPA; assay type: biochemical
tissue plasminogen activator (tPA), sequence (P00750 36-562, species assumed): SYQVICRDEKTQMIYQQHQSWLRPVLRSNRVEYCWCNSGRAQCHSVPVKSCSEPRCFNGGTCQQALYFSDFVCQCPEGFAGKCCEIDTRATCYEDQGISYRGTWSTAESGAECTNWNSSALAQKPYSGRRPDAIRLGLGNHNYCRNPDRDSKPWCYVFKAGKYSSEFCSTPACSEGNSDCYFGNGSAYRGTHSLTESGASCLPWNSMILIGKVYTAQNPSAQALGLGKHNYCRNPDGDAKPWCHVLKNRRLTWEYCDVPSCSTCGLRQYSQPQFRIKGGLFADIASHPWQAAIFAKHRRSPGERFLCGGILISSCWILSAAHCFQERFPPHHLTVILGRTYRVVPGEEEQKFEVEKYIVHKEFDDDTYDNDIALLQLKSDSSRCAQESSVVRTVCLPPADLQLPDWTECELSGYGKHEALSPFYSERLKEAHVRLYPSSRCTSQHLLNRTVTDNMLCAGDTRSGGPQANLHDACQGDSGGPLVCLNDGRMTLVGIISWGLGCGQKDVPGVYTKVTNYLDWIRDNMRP
Excerpt: The inhibitory effect of the new compounds of the invention on plasmin (PL) as well as on plasmin formation induced by tissue plasminogen activator (tPA) and urokinase (UK) was examined by the fibrin-plate method [D. Bagdy et al.: Thromb. Haemost. 67, 325 (1992)]. Compounds C1 and C5 served as controls. […] V. Jackson et al.: J. Cardiovasc. Pharmacol. 21, 587 (1993))]. In Table 4 the results obtained with the new compounds 1 and 2 as well as those with controls C1 and C5 are presented as an example.

clot-bound thrombin = molecular target: T1, clot-bound thrombin (Homo sapiens, UniProt P00734); test: inhibition of plasma clot-bound thrombin (Methods M1, M3); assay type: biochemical; details: clot from platelet-rich human plasma; Tos-Gly-Pro-Arg-pNA substrate
T1 construct: from tissue; host or cells: clot of recalcified human platelet-rich plasma
Method: Plasma-clot was obtained by recalcificating platelet-rich human plasma, and fibrin gel by clotting human fibrinogen with human thrombin. For the activity measures of fXa and thrombin Z-D-Arg-Gly-Arg-pNA or Tos-Gly-Pro-Arg-pNA substrates were used in agreement with Methods M1-M3.
Preparation of Clots from Human Plasma
a) Platelet-rich plasma is prepared by centrifuging a 9:1 mixture of human blood and 3.8% sodium citrate solution for 5 min. at 240×g.
b) 200 μl platelet-rich plasma and 80 μl 40 mM CaCl2 solution are allowed to stand at room temperature for 1 hour. The thus-formed clot is washed with 6×2 ml of 0.9% NaCl solution with gentle stirring to remove the residual enzymes (thrombin and factor Xa). The washing medium is assayed for thrombin-like activity as follows:
c) To 400 μl of washing medium 100 μl of 1 mM Tos-Gly-Pro-Arg-pNA substrate solution is added, the mixture is incubated for 30 min at 37° C., then the reaction is stopped with 100 μl of 50% acetic acid. From this mixture 150 μl aliquots are applied onto a 96-well microtitre plate and the extinction coefficients are measured at 405 nm (ELISA READER SLT Laborinstrument GmbH, Austria). In case of efficient washing the extinction coefficient is smaller than 5% of that of the control.
Determination of the Inhibition of Clot-bound Thrombin
a) Solutions are made from the peptide inhibitors according to Method M2/a.
b) After draining off the washing medium the clots (Method M1) are mixed with 400 μl of peptide solution (3 parallel samples with each concentration), then the samples are incubated for 5 min. at 37° C. together with a separate 400 μl buffer serving as control. Then 100 μl […] 1 mM Tos-Gly-Pro-Arg-pNA substrate solution is added and the incubation continued for further 30 min. at 37° C. The experiment is continued according to M2/c.

[2] = tested on: New Zealand white rabbits; test: ex vivo TT in citrate plasma of rabbits after p.o. dosing; parameters: species or system rabbit; details: p.o. 5 mg/kg
Method: The anticoagulant and platelet aggregation inhibiting effect of the compounds of general formula (I) was studied in New Zealand white rabbits ex vivo according to D. Bagdy et al. [Thromb. Haemost. 67, 357 (1992)]. The compounds were dissolved in buffered isotonic saline solution and administered i.v. (0,04-5.0 mg/kg) or by infusion (0.25-5.0 mg/kg/h) or subcutaneously (0.5-6.0 mg/kg) or p.o. (2.5-20 mg/kg). The effect of the compounds was detectable already within 30 minutes following p.o. administration, peak values were attained after 60-180 minutes and the therapeutic level was maintained dose-dependently for 3→6 hours.
The in vivo effect of ethoxycarbonyl-3-cyclobutyl-D-alanyl-L-prolyl-L-arginine aldehyde (1) is presented in detail in Tables 6 and 7. The corresponding values of C1 are listed as controls. The compound was administered p.o. in doses of 5 mg/kg. The blood samples drawn from the caudal vein in every 30-60 minutes were analysed. The whole blood clotting time (WBCT) and the inhibition of thrombin-induced blood platelet aggregation (PAI) were determined. The activated partial thromboplastin time (APTT) and the thrombin time (TT) in the citrate plasma obtained from the blood sample were also measured. The APTT and TT values are compiled in Table 6 and the WBCT and PAI values in Table 7.

Compound: CCOC(=O)N[C@H](CC1CCC1)C(=O)N1CCC[C@H]1C(=O)N[C@H](C=O)CCCNC(=N)N [Example 1, Ethoxycarbonyl-3-cyclobutyl-D-alanyl-L-prolyl-L-arginine aldehyde]
- IC50 (citrate plasma): 0.35 µM
- IC50 ([1]; fibrin plate, hydrolysed area reduced to 50% of control): 27 µM
- B: relative efficiency, tPA ([1]; related to the activity of C1 (1/IC50 = 1)): 4.9
- activity against tPA, times lower than that of compound C5 ([1]; text b147, second of three enzymes): 4.5 times
- IC50 (clot-bound thrombin): 0.39 µM
- TT relative clotting time ([2]; 0 min): 1.0
- TT relative clotting time ([2]; 30 min): 8.30 ± 5.67
- TT relative clotting time ([2]; 45 min): 9.04 ± 5.50
- TT relative clotting time ([2]; 60 min): 9.28 ± 5.45
- TT relative clotting time ([2]; 90 min): 13.58 ± 5.43
- TT relative clotting time ([2]; 120 min): 16.33 ± 5.89
- TT relative clotting time ([2]; 180 min): 6.95 ± 3.73
- TT relative clotting time ([2]; 240 min): 2.03 ± 0.42
- TT relative clotting time ([2]; 300 min): 1.77 ± 0.50
